Source: ChEMBL document CHEMBL1147935, “Synthesis and antihypertensive activity of novel 3-benzyl-2-substituted-3H-[1,2,4]triazolo[5,1-b]quinazolin-9-ones” (2007)

Tests used:
Type in all cases: functional
Set-up in all cases: scale not given: the % may be the effect or the level left
Rattus norvegicus [1] = assay: Antihypertensive activity in spontaneously hypertensive rat assessed as decrease in blood pressure at 5 mg/kg, po after 1 hr by tail cuff method
Rattus norvegicus [2] = assay: Antihypertensive activity in spontaneously hypertensive rat assessed as decrease in blood pressure at 5 mg/kg, po after 4 hrs by tail cuff method
Rattus norvegicus [3] = assay: Antihypertensive activity in spontaneously hypertensive rat assessed as decrease in blood pressure at 5 mg/kg, po after 5 hrs by tail cuff method
Rattus norvegicus [4] = assay: Antihypertensive activity in spontaneously hypertensive rat assessed as decrease in blood pressure at 5 mg/kg, po after 3 hrs by tail cuff method
Rattus norvegicus [5] = assay: Antihypertensive activity in spontaneously hypertensive rat assessed as decrease in blood pressure at 5 mg/kg, po after 2 hrs by tail cuff method

O=c1c2ccccc2nc2n(Cc3ccccc3)c(CN3CCOCC3)nn12
Activity (Rattus norvegicus [1]): 8.6%
Activity (Rattus norvegicus [2]): 25.6%
Activity (Rattus norvegicus [3]): 19.4%
Activity (Rattus norvegicus [4]): 21.7%
Activity (Rattus norvegicus [5]): 10%

CCOc1ccc(-c2nn3c(=O)c4ccccc4nc3n2Cc2ccccc2)cc1
Activity (Rattus norvegicus [1]): 6.5%
Activity (Rattus norvegicus [2]): 13.6%
Activity (Rattus norvegicus [3]): 16.5%
Activity (Rattus norvegicus [4]): 9.52%
Activity (Rattus norvegicus [5]): 7.6%

O=c1c2ccccc2nc2n(Cc3ccccc3)cnn12
Activity (Rattus norvegicus [1]): 5.4%
Activity (Rattus norvegicus [2]): 20.8%
Activity (Rattus norvegicus [3]): 19.8%
Activity (Rattus norvegicus [4]): 17.3%
Activity (Rattus norvegicus [5]): 7.3%

O=c1c2ccccc2nc2n(Cc3ccccc3)c(CCl)nn12
Activity (Rattus norvegicus [1]): 3.7%
Activity (Rattus norvegicus [2]): 17.2%
Activity (Rattus norvegicus [3]): 6.7%
Activity (Rattus norvegicus [4]): 15%
Activity (Rattus norvegicus [5]): 11.9%

CCCc1nn2c(=O)c3ccccc3nc2n1Cc1ccccc1
Activity (Rattus norvegicus [1]): 13.4%
Activity (Rattus norvegicus [2]): 17%
Activity (Rattus norvegicus [3]): 15.7%
Activity (Rattus norvegicus [4]): 19%
Activity (Rattus norvegicus [5]): 20.5%

Cc1nn2c(=O)c3ccccc3nc2n1Cc1ccccc1
Activity (Rattus norvegicus [1]): 15.3%
Activity (Rattus norvegicus [2]): 38.8%
Activity (Rattus norvegicus [3]): 15.3%
Activity (Rattus norvegicus [4]): 33.5%
Activity (Rattus norvegicus [5]): 31.5%

O=c1c2ccccc2nc2n(Cc3ccccc3)c(-c3ccccc3)nn12
Activity (Rattus norvegicus [1]): 6.1%
Activity (Rattus norvegicus [2]): 13.1%
Activity (Rattus norvegicus [3]): 14.1%
Activity (Rattus norvegicus [4]): 10.1%
Activity (Rattus norvegicus [5]): 7.1%

Cc1ccc(-c2nn3c(=O)c4ccccc4nc3n2Cc2ccccc2)cc1
Activity (Rattus norvegicus [1]): 4.7%
Activity (Rattus norvegicus [2]): 11.6%
Activity (Rattus norvegicus [3]): 16.2%
Activity (Rattus norvegicus [4]): 9.1%
Activity (Rattus norvegicus [5]): 5.6%

COc1ccc(-c2nn3c(=O)c4ccccc4nc3n2Cc2ccccc2)cc1
Activity (Rattus norvegicus [1]): 5.9%
Activity (Rattus norvegicus [2]): 12.6%
Activity (Rattus norvegicus [3]): 15.4%
Activity (Rattus norvegicus [4]): 9.6%
Activity (Rattus norvegicus [5]): 9.7%

COc1cc2nc(N3CCN(C(=O)c4ccco4)CC3)nc(N)c2cc1OC [PRAZOSIN]
Activity (Rattus norvegicus [1]): 30.2%
Activity (Rattus norvegicus [2]): 19.6%
Activity (Rattus norvegicus [3]): 12.9%
Activity (Rattus norvegicus [4]): 18%
Activity (Rattus norvegicus [5]): 24.6%

O=c1c2ccccc2nc2n(Cc3ccccc3)c(CN3CCCCC3)nn12
Activity (Rattus norvegicus [1]): 3.6%
Activity (Rattus norvegicus [2]): 16.1%
Activity (Rattus norvegicus [3]): 13.1%
Activity (Rattus norvegicus [4]): 9.1%
Activity (Rattus norvegicus [5]): 5.1%
